Measurements published in PubChem BioAssay (NCI).
Values joined by “and” are separate entries in the source; they are usually repeats but may differ in a detail not shown here. Equal entries are not always repeated.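 Tested at 5 concentrations; 48 h exposure; 96-well plates; endpoints linearly interpolated, else capped at highest concentration. GI50 marks 50% less growth. Definition used: TGI = concentration required for complete inhibition of growth.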

What was measured:
Assay in all cases: NCI anticancer screen, dose series, 48 h
ACHN renal = tested on: ACHN renal
SF-295 CNS = tested on: SF-295 CNS
HCC-2998 colon = tested on: HCC-2998 colon
HS 578T breast = tested on: HS 578T breast
EKVX NSCLC = tested on: EKVX NSCLC
UACC-62 melanoma = tested on: UACC-62 melanoma
NCI-H460 lung = tested on: NCI-H460 lung
NCI-H522 lung = tested on: NCI-H522 lung
HOP-92 NSCLC = tested on: HOP-92 NSCLC
RPMI-8226 leukemia = tested on: RPMI-8226 leukemia

Structure (SMILES) | GI50 (ACHN renal) | TGI (ACHN renal) | GI50 (SF-295 CNS) | TGI (SF-295 CNS) | GI50 (HCC-2998 colon) | TGI (HCC-2998 colon) | GI50 (HS 578T breast) | TGI (HS 578T breast) | GI50 (EKVX NSCLC) | TGI (EKVX NSCLC) | GI50 (UACC-62 melanoma) | TGI (UACC-62 melanoma) | GI50 (NCI-H460 lung) | TGI (NCI-H460 lung) | GI50 (NCI-H522 lung) | TGI (NCI-H522 lung) | GI50 (HOP-92 NSCLC) | TGI (HOP-92 NSCLC) | GI50 (RPMI-8226 leukemia) | TGI (RPMI-8226 leukemia)
CCOC1Oc2ccccc2C(=O)/C1=C/Nc1ccc(C(C)=O)cc1 (stereo not given) | 18.6 µM | 44 µM | 23.9 µM | 62.3 µM | 15.9 µM | 35.4 µM | 17.9 µM | 52 µM | 25.4 µM | 93.6 µM | 17.5 µM | 42 µM | 32.8 µM | > 100 µM | 27.1 µM | 87.3 µM | 25.6 µM | > 100 µM | 15.9 µM | 68.3 µM
COc1cccc(-c2cc(-c3cccc(NS(C)(=O)=O)c3)nc(N)c2C#N)c1O | 0.846 µM | > 100 µM | 0.0431 µM | 0.752 µM | 0.328 µM | > 27.1 µM | 0.0901 µM | 4.42 µM | 0.561 µM | > 100 µM | 0.064 µM | > 100 µM | 0.316 µM | > 39.5 µM | 0.0163 µM | 0.075 µM | 3.19 µM | > 31.5 µM | 0.268 µM | 11.8 µM
C=C(C)C(OC)C(O)CC1(C)CC(O)CC(C)(C2CCC3OC(C4(C)CCC(Br)C(C)(C)O4)CCC3(C)O2)O1 (stereo not given) | 26.4 µM | > 57.4 µM | 22.7 µM | 62.2 µM | 14.8 µM | 30.1 µM | 23.9 µM | 52.9 µM | 14.1 µM | 34.1 µM | 19 µM | 39.5 µM | 17.7 µM | 39.3 µM | 18.2 µM | 55.8 µM | 15.8 µM | 34 µM | 12.7 µM | 38.1 µM
COC([CH2][Hg][n]1cnc2c1c(=O)n(C)c(=O)n2C)CN1C(=O)c2ccccc2S1(=O)=O (stereo not given) | > 100 µM | > 100 µM | > 100 µM | > 100 µM | > 100 µM | > 100 µM | > 100 µM | > 100 µM | > 100 µM | > 100 µM | > 100 µM | > 100 µM | > 100 µM | > 100 µM | > 100 µM | > 100 µM | > 100 µM | > 100 µM | > 100 µM | > 100 µM
O=C(Nc1ccccc1)c1c(O)[nH]c(=S)[nH]c1=O |  | 78.7 µM |  | 108 µM | 95.3 µM | 120 µM and > 250 µM |  | 74.3 µM | 120 µM | 103 µM and > 250 µM | 33 µM | 55.2 µM and 162 µM | 29.5 µM | 101 µM and > 250 µM | 83 µM | 58.3 µM and > 250 µM |  | 45.1 µM |  | 79 µM and > 25 µM
Nc1nc(-n2c(-c3ccccc3)nc3c(Br)cc(Br)cc3c2=O)nnc1-c1cccc(Cl)c1Cl | 12.2 µM | 40.2 µM | 11.2 µM | 34.8 µM | 3.42 µM | 15.5 µM | 5.02 µM | 41 µM | 20.2 µM | > 100 µM | 7.08 µM | 25.4 µM | 6.92 µM | > 100 µM | 20.8 µM | > 100 µM | 38.5 µM | > 100 µM | 6.05 µM | > 100 µM
C=CCOc1ccc2c(C)cc(=O)oc2c1C |  | > 100 µM |  | 58.5 µM |  | > 100 µM |  | 77.1 µM |  | > 100 µM |  | > 100 µM |  | > 100 µM |  | 81.4 µM |  | > 100 µM |  | > 100 µM
COc1cc2c(c3oc4c(O)cccc4c(=O)c13)CC(C(C)(O)CO)O2 (stereo not given) |  | > 100 µM |  | > 100 µM |  | > 100 µM |  | > 100 µM |  | > 100 µM |  | > 100 µM |  | > 100 µM |  | > 100 µM |  | > 100 µM |  | > 100 µM
